Source: publication PMC8305768, “Design, Synthesis and Antiparasitic Evaluation of Click Phospholipids” (Molecules, 2021)
Structures can show the parent of a compound that is named as a salt. Where two headings read alike, the source gives them in different places.

Assays:
[1] = system: T. cruzi epimastigotes (Y strain); assay: Antiproliferative assay on T. cruzi epimastigotes; type: cell-based; conditions: Trypanosoma cruzi
Procedure: T. cruzi epimastigotes (Y strain) were obtained by axenic cultivation in the LIT medium, supplemented with 10% FBS (Cultilab, São Paulo, Brazil). Cultures were maintained at […] for 4–5 days until they reached the log growth phase. New cultures were made every 4 days from the initial inoculum of 2 × 10^6 parasites/mL. T. cruzi trypomastigotes (Y strain) were maintained in culture by the infection of LLC-MK2 (ATTC-CCL7) epithelial cells. This cell line was cultured in […] tissue culture bottles (TPP) in RPMI 1640 medium (Gibco), (Thermo Fischer Scientific, Carlsbad, CA, USA) supplemented with 10% FBS (Gibco) (Thermo Fischer Scientific, Carlsbad, CA, USA). Cultures were maintained at 37 °C under 5% CO2 atmosphere, and RPMI 1640 medium and SFB were exchanged every 48 h. After confluence, the cultures were treated with 1 mL of a mixture of trypsin and versene (Sigma, São Paulo, Brazil) (0.2 and 0.002%, respectively). After 24 h, a subconfluence culture was infected with the trypomastigotes in the approximate proportion of 10:1 parasites/cell. From five to seven days post infection, the trypomastigote stage was obtained from the culture supernatant. Alternatively (Figure 2), T. cruzi strain Y was maintained as previously described.
The trypomastigotes were obtained from the supernatant of a previously infected cell line (LLC-MK2). Between 5 and 7 days after infection, protozoa were collected from the supernatants of the infected LLC-MK2 cells and were then incubated with fresh RPMI 1640 medium supplemented with 0.5% FBS, with or without the compounds, for 24 h at 37 °C under a 5% CO2 atmosphere. […] The experiment was performed in duplicate for each of the three different experiments. For the antiproliferative assay involving epimastigotes, […] were cultivated in LIT medium supplemented with 10% FBS. After 24 h of epimastigote growth, different concentrations of 50 nM to 50 µM were added to the culture and incubated for 120 h at 28 °C. Cells were collected every 24 h for counting in a Neubauer chamber. Two controls were used and consisted of liver infusion broth-tryptose (LIT) supplemented with 10% FBS and LIT added with 0.01% DMSO. To investigate the effect of the compounds on intracellular amastigotes, peritoneal macrophages from Swiss mouse (CF1) plated in 96 wells plates (Costar®, Sigma, São Paulo, Brazil) were incubated for 2 h with T. cruzi trypomastigotes at a ratio of 10 parasites to 1 cell. The non-internalized parasites were removed by washing with the RPMI 1640 medium, and the host cells were incubated for 24 h at 37 °C to allow full internalization and differentiation of trypomastigotes to amastigotes. Fresh 10% FBS-RPMI 1640 medium with 1 µg/mL Hoescht 3348 and 1 µg/mL of WGA-FITC (control) or the same solution containing the inhibitors was added to the infected cells, which were then incubated for 96 h at 37 °C. Every 24 h samples were taken and analysed in high content equipment (InCell Analyser 2000, GE Healthcare, Chicago, IL, USA) with 20× air objective (NA 0.4) using respectively filters to excitation and emission to DAPI (405/455 nm), FITC (488/505 nm) and Cy3 (514/605 nm). Six images were collected for each well for reliable statistical analysis. […] The infection index (i.e., the percentage of infected host cells multiplied by the average number of intracellular amastigotes per infected host cell) was determined by counting a total of 500 host cells. Inhibitor activity was calculated using the SigmaPlot (version 10) program (Systat Software, Inc., San Jose, CA, USA). The results are expressed as the mean values from three independent experiments. The IC50 was calculated for promastigotes and intracellular amastigotes by fitting the values to a non-linear curve analysis. The regression analyses were performed with SigmaPlot 10 (version 10) program (Systat Software, Inc., San Jose, CA, USA).

[2] = system: T. b. brucei L427 WT bloodstream form; assay: Activity against T. brucei bloodstream forms (resazurin-based assay); type: cell-based; conditions: Trypanosoma brucei; 10 μM, 72 h; read-out: Single Dose Assay 10μM Mean Inhibitory Activity (%) ± SD
Procedure: Trypanosoma brucei brucei Lister 427 bloodstream forms were grown at 37 °C, 5% CO2 in complete HMI-9 medium supplemented with 10% foetal calf serum (FCS) and 100 UI/mL of penicillin/streptomycin. […] The efficacy of compounds against T. brucei bloodstream forms was evaluated using a modified resazurin-based assay previously described. Mid-log bloodstream forms were added to an equal volume of serial dilutions of compounds in supplemented complete HMI-9 medium at a final cell density of 5 × 10^3/mL. Following incubation for 72 h at 37 °C 5% CO2, 20 μL of a 0.5 mM resazurin solution was added and plates were incubated for a further 4 h under the same conditions. Fluorescence was measured at 540 nm and 620 nm excitation and emission wavelength, respectively, using a Synergy 2 Multi-Mode Reader (Biotek, Winooski, VT, USA).

[3] = system: PMA-differentiated THP-1 cells; assay: Cytotoxicity against THP-1 macrophages (MTT); type: cell-based; conditions: PMA-differentiated THP-1 macrophages, 72 h, read-out: Toxicity CC50 ± SD Or CC50 Interval Estimation
Procedure: The effect of compounds selected compounds on THP-1-derived macrophages was assessed by the colorimetric MTT assay (3-(4,5-dimethylthiazol-2-yl)-2,5-diphenyl tetrazolium bromide). Briefly, 1 × 10^5 THP-1 cells/mL were differentiated into macrophages by addition of 20 ng/mL of phorbol-myristate 13-acetate (PMA, Sigma, Saint Louis, MI, USA) for 18 h, followed by replacement with fresh medium for 24 h. Cells were incubated with 100 µL of compounds ranging from 100 to 1 µM after dilution in the RPMI complete medium containing a maximum amount of 1% DMSO. After incubation for 72 h, the medium was removed and 100 µL of 0.5 mg/mL MTT solution diluted in RPMI was added. Plates were incubated for an additional 4 h to allow viable cells to convert MTT into a purple formazan product. Solubilization of formazan crystals was achieved by the addition of 2-propanol and absorbance was read at 570 nm using a Synergy 2 Multi-Mode Reader (Biotek, Winooski, VT, USA). Cytotoxicity was evaluated by the determination of the CC50 value (drug concentration that reduced the percentage of viable cells in 50%) and calculated by non-linear regression analysis using GraphPad Prism version 8.1.1 for Windows (GraphPad Software, San Diego, CA, USA).

[4] = system: T. cruzi intracellular amastigotes (Y strain); assay: T. cruzi intracellular amastigotes in Swiss mouse peritoneal macrophages (high content imaging); type: cell-based; conditions: Trypanosoma cruzi, Peritoneal macrophage
Procedure: The trypomastigotes were obtained from the supernatant of a previously infected cell line (LLC-MK2). Between 5 and 7 days after infection, protozoa were collected from the supernatants of the infected LLC-MK2 cells and were then incubated with fresh RPMI 1640 medium supplemented with 0.5% FBS, with or without the compounds, for 24 h at 37 °C under a 5% CO2 atmosphere. […] The experiment was performed in duplicate for each of the three different experiments. […] To investigate the effect of the compounds on intracellular amastigotes, peritoneal macrophages from Swiss mouse (CF1) plated in 96 wells plates (Costar®, Sigma, São Paulo, Brazil) were incubated for 2 h with T. cruzi trypomastigotes at a ratio of 10 parasites to 1 cell. The non-internalized parasites were removed by washing with the RPMI 1640 medium, and the host cells were incubated for 24 h at 37 °C to allow full internalization and differentiation of trypomastigotes to amastigotes. Fresh 10% FBS-RPMI 1640 medium with 1 µg/mL Hoescht 3348 and 1 µg/mL of WGA-FITC (control) or the same solution containing the inhibitors was added to the infected cells, which were then incubated for 96 h at 37 °C. Every 24 h samples were taken and analysed in high content equipment (InCell Analyser 2000, GE Healthcare, Chicago, IL, USA) with 20× air objective (NA 0.4) using respectively filters to excitation and emission to DAPI (405/455 nm), FITC (488/505 nm) and Cy3 (514/605 nm). Six images were collected for each well for reliable statistical analysis. […] The infection index (i.e., the percentage of infected host cells multiplied by the average number of intracellular amastigotes per infected host cell) was determined by counting a total of 500 host cells. Inhibitor activity was calculated using the SigmaPlot (version 10) program (Systat Software, Inc., San Jose, CA, USA). The results are expressed as the mean values from three independent experiments. The IC50 was calculated for promastigotes and intracellular amastigotes by fitting the values to a non-linear curve analysis. […]

[5] = parameters: method as in PMID 18472998, PMID 22573856; conditions: in humans ref 12,13; cited from earlier work
[6] = epimastigotes, 24 h, read-out: IC50 24 h
[7] = epimastigotes, 48 h, read-out: IC50 48 h
[8] = epimastigotes, 72 h, read-out: IC50 72 h

## CCCCCc1cn(CCCCCCCCCCCOP(=O)([O-])OCC[N+](C)(C)C)nn1 [Compound 25, 11-(4-pentyl-1H-1,2,3-triazol-1-yl)undecyl (2-(trimethylammonio)ethyl) phosphate inner salt]
[1]; [6]
  IC50: 7.8 µM
[1]; [7]
  IC50: 3.85 µM
[1]; [8]
  IC50: 2.16 µM

## C[N+](C)(C)CCOP(=O)([O-])OCCCCCCCCCCCn1cc(CC2CCCC2)nn1 [Compound 28, 11-(4-(cyclopentylmethyl)-1H-1,2,3-triazol-1-yl)undecyl (2-(trimethylammo nio)ethyl) phosphate inner salt]
[2]
  inhibition at 10 µM: < 20%

## C[N+](C)(C)CCOP(=O)([O-])OCCCCCCCCCCCn1cc(CC2CCCCC2)nn1 [Compound 29, 11-(4-(cyclohexylmethyl)-1H-1,2,3-triazol-1-yl)undecyl (2-(trimethylammonio)ethyl) phosphate inner salt]
[1]; [6]
  IC50: > 10 µM
[1]; [7]
  IC50: > 10 µM
[1]; [8]
  IC50: > 10 µM

## C[N+](C)(C)CCOP(=O)([O-])OCCCCCn1cc(CCCCCCCCNC(=O)OCc2ccccc2)nn1 [Compound 31, 5-(4-(8-(((benzyloxy)carbonyl)amino)octyl)-1H-1,2,3-triazol-1-yl)pentyl (2-(trimethylammonio)ethyl) phosphate inner salt]
[2]
  inhibition at 10 µM: 20 ± 1%

## C[N+](C)(C)CCOP(=O)([O-])OCCCCCCCCCCCn1cc(CCCCCCCCNC(=O)OCc2ccccc2)nn1 [Compound 32, 11-(4-(8-(((benzyloxy)carbonyl)amino)octyl)-1H-1,2,3-triazol-1-yl)undecyl (2-(trimethylammonio)ethyl) phosphate inner salt]
[2]
  inhibition at 10 µM: 36 ± 4%

## C[N+](C)(C)CCCOP(=O)([O-])OCCCCCCCCCCCn1cc(CC2CCCCC2)nn1 [Compound 33, 11-(4-(cyclohexylmethyl)-1H-1,2,3-triazol-1-yl)undecyl (3-(trimethylammonio)propyl) phosphate inner salt]
[2]
  inhibition at 10 µM: 23 ± 3%

## CCCCCCCCc1noc(CCCCCCCCCCOP(=O)([O-])OCC[N+](C)(C)C)n1 [Compound 54, 10-(3-octyl-1,2,4-oxadiazol-5-yl)decyl (2-(trimethylammonio)ethyl) phosphate inner salt]
[3]
  CC50: 10.8 µM

## CCCCCCCCCCCCCCCCOP(=O)([O-])OCC[N+](C)(C)C [Miltefosine, hexadecylphosphocholine, reference compound]
[4]; 24 h, read-out: IC50 24 h
  IC50: 12.4 ± 0.6 µM
[4]; 48 h, read-out: IC50 48 h
  IC50: 4.59 ± 0.1 µM
[4]; 72 h, read-out: IC50 72 h
  IC50: 4.3 ± 0.12 µM
[5]
  half-life: 100 to 200 h
[1]; 24 h, read-out: IC50 24 h
  IC50: 18.4 ± 1.2 µM
[1]; 48 h, read-out: IC50 48 h
  IC50: 9.5 ± 0.9 µM
[1]; 72 h, read-out: IC50 72 h
  IC50: 8.34 µM
